Holding throughout (parameters): dose 1 mg/kg, route intravenous
The nature of data set [1]: Plasma clearance for the compound was measured in monkey after an iv dose of 1 mg/kg. It is filed as ADME, organism-based. The conditions noted are these: cercopithecidae, read-out: Clp (converted).
Data set [2] in a line: Terminal phase volume of distribution was measured in rat after an iv dose of 1 mg/kg. It is filed as ADME, organism-based. The conditions noted are these: in vivo, read-out: Va beta.
Data set [3] in a line: Area under the curve was measured in mouse after an iv dose of 1 mg/kg. Particulars: in vivo. It is filed as ADME, organism-based.
Data set [4] can be described thus: Terminal phase volume of distribution was measured in dog after an iv dose of 1 mg/kg. It is filed as ADME, organism-based, Canis lupus familiaris. Particulars: in vivo, read-out: Va beta.
Data set [5] can be described thus: Plasma clearance for the compound was measured in mouse after an iv dose of 1 mg/kg. It is filed as ADME, organism-based. Particulars: read-out: Clp (converted).
The nature of data set [6]: Plasma clearance for the compound was measured in rat after an iv dose of 1 mg/kg. It is filed as ADME, organism-based. The conditions noted are these: read-out: Clp (converted).
A short description of data set [7]: Half-life was measured in mouse after an iv dose of 1 mg/kg. It is filed as ADME, organism-based. The conditions noted are these: in vivo.
A short description of data set [8]: Volume of distribution was measured in dog after an iv dose of 1 mg/kg. It is filed as ADME, organism-based, Canis lupus familiaris. The conditions noted are these: in vivo, read-out: Vv.
A short description of data set [9]: Area under the curve was measured in rat after an iv dose of 1 mg/kg. It is filed as ADME, organism-based. The conditions noted are these: in vivo.
The nature of data set [10]: Area under the curve was measured in dog after an iv dose of 1 mg/kg. It is filed as ADME, organism-based, Canis lupus familiaris. Particulars: in vivo.
Data set [11] in a line: Terminal phase volume of distribution was measured in mouse after an iv dose of 1 mg/kg. It is filed as ADME, organism-based. Particulars: in vivo, read-out: Va beta.
A short description of data set [12]: Terminal phase volume of distribution was measured in monkey after an iv dose of 1 mg/kg. It is filed as ADME, organism-based. Particulars: cercopithecidae, in vivo, read-out: Va beta.
The nature of data set [13]: Area under the curve was measured in monkey after an iv dose of 1 mg/kg. It is filed as ADME, organism-based. Particulars: cercopithecidae, in vivo.
Data set [14] in a line: Volume of distribution was measured in mouse after an iv dose of 1 mg/kg. Particulars: in vivo, read-out: Vv. It is filed as ADME, organism-based.
A short description of data set [15]: Volume of distribution was measured in rat after an iv dose of 1 mg/kg. It is filed as ADME, organism-based. Particulars: in vivo, read-out: Vv.
Data set [16] can be described thus: Half-life was measured in dog after an iv dose of 1 mg/kg. Particulars: in vivo. It is filed as ADME, organism-based, Canis lupus familiaris.
Data set [17] in a line: Half-life was measured in monkey after an iv dose of 1 mg/kg. It is filed as ADME, organism-based. Particulars: cercopithecidae, in vivo.
Data set [18] is described as follows: Half-life was measured in rat after an iv dose of 1 mg/kg. It is filed as ADME, organism-based. Particulars: in vivo.
Data set [19] in a line: Plasma clearance for the compound was measured in dog after an iv dose of 1 mg/kg. It is filed as ADME, organism-based, Canis lupus familiaris. Particulars: read-out: Clp (converted).
The nature of data set [20]: Volume of distribution was measured in monkey after an iv dose of 1 mg/kg. It is filed as ADME, organism-based. The conditions noted are these: cercopithecidae, in vivo, read-out: Vv.

The structures appear in SMILES notation. Starred links: 1 amine or outer side, 2 acyl side, 3 side chain; linkers in the order of their positions; H or OH if unused. Positions of bridges follow the written chain, without caps; N, C: chain ends. Non-standard residues stand in square brackets, D forms with d. Residues, ends and D or L forms follow the SMILES beside them. *: point of attachment. pTerphenylCO(4''-OnC5H11) = CCCCCOc1ccc(-c2ccc(-c3ccc(C(=O)*)cc3)cc2)cc1; X1 = NCC(=O)Nc1cc(CC[C@H](N[*:1])C(=O)[*:2])ccc1O; X2 = NC(N)=N[C@H]1CC(C(=O)[*:2])N([*:1])C1; Hyp = O=C(O)[C@@H]1C[C@@H](O)CN1; Orn = NCCC[C@H](N)C(=O)O

As usually defined, the AUC is concentration integrated over time. The term half-life denotes the time needed for the level to fall by half in the phase considered. In the case of `CCCCCOc1ccc(-c2ccc(-c3ccc(C(=O)N[C@H]4CCCNC(=O)C5C[C@H](N=C(N)N)CN5C(=O)[C@H]([C@@H](C)O)NC(=O)[C@H](CCc5ccc(O)c(NC(=O)CN)c5)NC(=O)[C@@H]5C[C@@H](O)CN5C(=O)[C@H]([C@@H](C)O)NC4=O)cc3)cc2)cc1` (stereo not given in full) ({pTerphenylCO(4''-OnC5H11)}-[Orn]T[Hyp][X1]T[X2]; lactam 1-C), the clearance in data set [1] was 2.83 mL/min/kg; in data set [5], 1 mL/min/kg; in data set [6], 2.33 mL/min/kg; in data set [19] it was 0.5 mL/min/kg. Besides, the Vd was determined as 2.2 L/kg in data set [2]; 1.3 L/kg in data set [4]; 0.6 L/kg in [8]; 1 L/kg in data set [11]; 0.9 L/kg in data set [12]; 0.4 L/kg in data set [14]. In addition, the results for the Vd in [15] and in [20] were 0.6 L/kg and 0.2 L/kg, respectively. Also, the AUC in [3] was determined as 16800 ng·h/mL; in [9], 11700 ng·h/mL; in [10], 36400 ng·h/mL; in data set [13], 6550 ng·h/mL. In addition, the half-life is 11.5 h in data set [7], 30.4 h in [16], 3.3 h in data set [17] and 7.4 h in data set [18].

These data come from ChEMBL document CHEMBL1136559, “Discovery, SAR, synthesis, pharmacokinetic and biochemical characterization of A-192411: a novel fungicidal lipopeptide-(I)” (Bioorg Med Chem Lett, 2003).
